# Results published in PMC3169616, “Unique Residues Involved in Activation of the Multitasking Protease/Chaperone HtrA from Chlamydia trachomatis” (PLoS ONE, 2011).
# Assays:
# CtHtrA = target: T1, CtHtrA (Chlamydia trachomatis serovar D, UniProt P18584); assay: Oligomerisation assay (glutaraldehyde crosslinking, 3-8% TrisAcetate gel, silver stain); assay type: biochemical; details: wild type CtHtrA 2 mg/ml, 100 mM sodium phosphate pH 7.0, 10 mins at 37°C, 0.5% glutaraldehyde fixation
# T1 construct: His-tag; made in house; host or cells: E. coli BL21 (DE3), plasmid pETHtrA
# T1 sequence (P18584 17-497): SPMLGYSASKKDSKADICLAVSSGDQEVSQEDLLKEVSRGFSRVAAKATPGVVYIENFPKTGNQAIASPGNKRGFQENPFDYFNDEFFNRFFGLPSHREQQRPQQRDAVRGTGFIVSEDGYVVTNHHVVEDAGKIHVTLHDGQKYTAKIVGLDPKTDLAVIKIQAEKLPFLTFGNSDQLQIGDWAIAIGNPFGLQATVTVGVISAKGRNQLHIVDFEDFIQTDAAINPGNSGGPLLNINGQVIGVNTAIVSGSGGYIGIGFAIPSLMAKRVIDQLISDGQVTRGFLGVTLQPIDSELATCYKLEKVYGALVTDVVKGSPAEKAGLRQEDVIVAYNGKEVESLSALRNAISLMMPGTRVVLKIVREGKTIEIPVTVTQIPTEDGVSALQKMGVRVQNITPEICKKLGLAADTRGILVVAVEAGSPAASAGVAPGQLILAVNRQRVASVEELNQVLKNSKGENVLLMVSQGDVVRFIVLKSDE
# Procedure: E. coli DegP proteolysis activation involves the transition from resting hexamers via trimers to 12- and 24-mers following the peptide activator binding to the PDZ1 binding cleft. CtHtrA oligomer formation induced by Act1 addition was examined after incubation for 10 mins at 37°C. The wild type and mutant proteins were incubated with either the ß-casein based activator peptide (Act1), or with whole insulin (intact), or in the absence of any activator as a control. CtHtrA incubated in the absence of any added activators formed 24-mers with some hexamers detected after 10 mins (Fig. 5). […] The R299W mutant was present as hexamer and 24-mer in the control with no activator. […] The L302N mutant was not detected in any higher oligomeric form under any conditions. L302N was detected as faint hexamer and trimer but mostly monomer under all tested conditions (not visible on these gels). […] I365D was detected as hexamers, trimers, 12-mers, and some 24-mers when incubated in the absence of activators.
# The oligomerisation of HtrA into 12- and 24-mer complexes has been independently detected for E. coli HtrA (DegP). The oligomerisation of HtrA (DegP) was triggered by peptides from digested ß-casein [18]. Assays to detect whether CtHtrA and site directed mutant protein oligomerisation was triggered by substrates were conducted essentially as previously described (Merdanovic et al., 2010). Briefly, 2 mg/ml protein solutions in 100 mM sodium phosphate buffer pH 7.0 were pre-incubated to the required temperature. The ligands (activator peptide, or insulin) were added and at 10 min, and the proteins were fixed using 0.5% glutaraldehyde. Samples were fixed at room temperature for 2 min prior to addition of 1 M Tris pH 7.5 to remove any excess glutaraldehyde. Samples were incubated for another 10 min at room temperature prior to addition of SDS PAGE reducing loading buffer. The protein samples were examined on 3–8% TrisAcetate gradient polyacrylamide gels (Novex, Invitrogen) by silver staining. The proteins used in this study were not initially denatured by treatment with urea as, the refolding, formation of oligomers, and protease activity was never successfully detected with denatured CtHtrA. All assays were conducted in duplicate on three separate occasions with at least two gels of each experiment completed for each assay condition.
# CtHtrA R299W/R373A = assay: Act1 activation of Bcas1 proteolysis by mutated protein; assay type: biochemical, Chlamydia trachomatis; details: R299W/R373A mutant; Act1 120 µM
# Excerpt: (§1) The hexameric CtHtrA molecular model was examined to identify the putative PDZ1 activator binding cleft (Fig. 4). The base of this cleft in CtHtrA is a hydrophobic pocket formed by the residues L302 and I365 (V328 in E. coli DegP) (Fig. 4). L302 and I365 were targeted for site directed mutagenesis (L302N and I365D) to make this non-polar pocket either polar or charged. The role of a potential conformational change caused by movement of the whole PDZ1 domain relative to the protease subunit was also tested by mutating a highly conserved arginine residue (R299W) on the flexible loop between the protease and PDZ domains. This mutation was made in order to alter the flexibility around this residue while occupying a similar sized area. Additionally, a second mutation was made in conjunction with the R299W mutation on the residue R373A which potentially forms a salt bridge between the PDZ domain and protease domain. This double mutation was made in order to reduce the flexibility and disrupt the mobile salt bridge involved in the PDZ1:protease domain interface. The R373A mutation was also made independently of R299W. These mutated proteins were assayed to examine the impact of the changes on Act1 activation on the Bcas1 substrate proteolysis. […]
# (§2) The purified recombinant protein was examined by Coomassie stained polyacrylamide gels and activity was checked using ß-casein cleavage assays prior to use in peptide assays. […] Protease assays using pNA labelled peptides were conducted using the xMARK Microplate spectrophotometer (Bio-Rad) at 405 nm, incubated at 37°C, with a reading taken every 10 s for 30 min. The maximum slope over a minimum of 8 readings was used for the data analysis. […] The assays were excited at 340 nm and emission was detected at 405 nm with a gain of 1000, the assays were monitored every 20 s or at the minimum cycle time for up to 40 min. […] The assay results shown for the fluorescent compounds have been normalised for the amount of fluorescent emission detected using a standard curve of known concentrations of the MCA fluorophore under the identical assay conditions. […]
# CtHtrA R373A = assay: as above; assay type: biochemical, Chlamydia trachomatis; details: R373A mutant; Act1 120 µM
# Excerpt: as §1, §2
substance,measurement,setting,value
H-VLGPVRGPFPIIV-OH [Act1],CtHtrA oligomer formation induced by activator,CtHtrA,induced the protein to form 24-mers
same,effect of Act1 on Bcas1 proteolysis rate,CtHtrA R299W/R373A,failed to increase the proteolysis rate
same,effect of Act1 on Bcas1 proteolysis rate,CtHtrA R373A,failed to increase the proteolysis rate
